The target in assay [1] is T1, ACAT 1 (Acyl CoA-Cholesterol Acyltransferase 1) (Homo sapiens, UniProt P35610).
T1 construct: Cells were collected, homogenized and microsomal membranes prepared; endogenous in cells; host or cells: U937 human monocyte cell line differentiated to macrophages with PMA; microsomal membranes
T1 sequence (P35610 1-550): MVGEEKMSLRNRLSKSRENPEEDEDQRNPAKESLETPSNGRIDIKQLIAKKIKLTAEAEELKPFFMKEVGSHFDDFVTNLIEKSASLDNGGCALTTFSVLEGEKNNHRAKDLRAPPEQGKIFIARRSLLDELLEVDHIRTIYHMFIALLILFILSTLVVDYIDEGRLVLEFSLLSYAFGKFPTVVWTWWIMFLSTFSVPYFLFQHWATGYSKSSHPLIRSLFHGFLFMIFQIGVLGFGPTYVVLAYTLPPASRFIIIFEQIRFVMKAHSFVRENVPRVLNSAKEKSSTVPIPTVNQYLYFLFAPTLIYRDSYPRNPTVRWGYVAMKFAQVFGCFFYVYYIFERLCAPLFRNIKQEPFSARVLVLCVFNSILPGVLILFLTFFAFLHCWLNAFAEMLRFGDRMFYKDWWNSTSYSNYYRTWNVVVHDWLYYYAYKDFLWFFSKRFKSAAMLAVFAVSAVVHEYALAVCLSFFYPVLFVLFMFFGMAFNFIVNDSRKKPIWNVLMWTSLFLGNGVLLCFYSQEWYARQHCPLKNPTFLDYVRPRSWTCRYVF
The experiment in a line: In-vitro determination of inhibition of ACAT 1 (microsomal membranes of U937 cells differentiated to macrophages, [14C]-Palmitoyl CoA). The class given is biochemical. Particulars: for IC50: U937 macrophage microsomes; for inhibition at 30 µM: 3 × 10^−5 M; for inhibition at 30 µM / inhibition at 3 µM / inhibition at 100 µM / inhibition at 10 µM / inhibition at 1 µM: read-out: ACAT 1 Inhibition (%) at various concentration of example; for inhibition at 3 µM: 3 × 10^−6 M; for inhibition at 100 µM: 10^−4 M; for inhibition at 10 µM: 10^−5 M; for inhibition at 1 µM: 10^−6 M. The procedure:
I. In-vitro Determination of Inhibition of ACAT 1 (Acyl CoA-Cholesterol Acyltransferase 1)
The in-vitro determination of the inhibition of the enzyme ACAT 1 by the compounds of the invention is carried out in principle as described:
Human histiocytic monocyte cell line, U937 was differentiated to macrophages with Phorbol 12-myristate 13-acetate at a final concentration of 30 ng/mL for 72 hr. Cells were collected, homogenized and microsomal membranes prepared. Enzyme inhibition experiments were performed in the presence of 20 μM [^14]-Palmitoyl CoA as substrate. The vehicle used was 1% DMSO. Compounds to be tested were present at various concentrations and the incubation buffer used was 0.2M KH2PO4, 1 mM EDTA, 0.15% BSA, pH 7.4. After a 15 minutes preincubation period at 37° C. an incubation period of 1 hour at 37° C. followed. Quantification of [^14C]Cholesterol ester was done by column chromatography.

In assay [2] the target is T2, ACAT 2 (Acyl CoA-Cholesterol Acyltransferase 2) (Rattus norvegicus, UniProt Q7TQM4).
T2 construct: Briefly hepatic microsomes were prepared from the Wistar rats; from tissue; host or cells: liver (hepatic microsomes) of Wistar rats
T2 sequence (Q7TQM4 1-524): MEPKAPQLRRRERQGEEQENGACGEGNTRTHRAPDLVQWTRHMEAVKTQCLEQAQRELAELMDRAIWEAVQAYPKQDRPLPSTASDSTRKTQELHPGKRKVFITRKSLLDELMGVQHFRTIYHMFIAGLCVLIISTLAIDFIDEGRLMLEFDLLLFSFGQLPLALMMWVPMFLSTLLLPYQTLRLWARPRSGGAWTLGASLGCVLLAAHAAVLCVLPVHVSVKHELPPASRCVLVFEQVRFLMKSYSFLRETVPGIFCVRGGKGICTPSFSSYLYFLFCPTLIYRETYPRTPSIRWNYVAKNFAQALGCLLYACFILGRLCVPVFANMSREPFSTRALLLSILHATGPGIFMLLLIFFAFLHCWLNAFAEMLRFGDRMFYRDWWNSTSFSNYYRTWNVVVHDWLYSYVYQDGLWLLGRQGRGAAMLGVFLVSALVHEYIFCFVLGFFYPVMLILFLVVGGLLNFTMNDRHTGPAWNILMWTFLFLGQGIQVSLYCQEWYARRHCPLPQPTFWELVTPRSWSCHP
Particulars: reported value; read-out: ACAT 2 reported IC50 of reference compound; cited from earlier work.

Assay [3] addresses T2, ACAT 2 (Acyl CoA-Cholesterol Acyltransferase 2). In words: In-vitro determination of inhibition of ACAT 2 (hepatic microsomes, [14C]-Palmitoyl CoA). The class given is biochemical, Wistar rats. The procedure: II. In-vitro Determination of Inhibition of ACAT 2 (Acyl CoA-Cholesterol Acyltransferase 2)
The in-vitro determination of the inhibition of the enzyme ACAT 2 by the compounds of the invention is carried out in principle as described in the publication of Largis EE, Wang CH, DeVries VG and Schaffer SA (1989), “A Novel inhibitor of ACAT-catalyzed cholesterol esterification and cholesterol absorption”, J. Lipid Res. 30, 681-689, (1989), whereby hepatic microsomes are used. The radio-substrate used is [^14C]-Palmitoyl CoA. The respective parts of the description are hereby incorporated by reference and forms part of the present disclosure.
Briefly hepatic microsomes were prepared from the Wistar rats. Enzyme inhibition experiments were performed in presence of 18 μM [^14C]-Palmitoyl CoA as substrate. The vehicle used was 1% DMSO. Compounds to be tested were present at various concentrations and the incubation buffer used was 0.2 M Phosphate buffer, pH 7.4 at 25° C. After a 15 minutes preincubation period at 37° C. an incubation period of 10 minutes at 37° C. followed. Quantification of [^14C]Cholesterol ester was done by column chromatography.

The mark [4] stands for this setting: second ACAT 2 table, value marked * estimated from 2 different experiments.
Setting [5] is: 3 × 10^−6 M, first ACAT 2 table, read-out: ACAT 2 Inhibition (%) at various concentration of example.
Where [6] appears, read: 3 × 10^−6 M, second ACAT 2 table, column 4, read-out: ACAT 2 Inhibition (%) at various concentration of example.
Where [7] appears, read: 3 × 10^−7 M, first ACAT 2 table, read-out: ACAT 2 Inhibition (%) at various concentration of example.
The mark [8] stands for this setting: 10^−5 M, first ACAT 2 table, read-out: ACAT 2 Inhibition (%) at various concentration of example.
Setting [9] is: 10^−5 M, second ACAT 2 table, column 3, read-out: ACAT 2 Inhibition (%) at various concentration of example.
The mark [10] stands for this setting: 10^−6 M, first ACAT 2 table, read-out: ACAT 2 Inhibition (%) at various concentration of example.

We go through 4 compounds from patent US20100099712A1, “SUBSTITUTED PYRAZOLINE COMPOUNDS WITH ACAT INHIBITION ACTIVITY” (LABORATORIOS DEL DR. ESTEVE, S.A., priority 2007, published 2010).

The term IC50 denotes the midpoint of a concentration-inhibition curve.

Where two headings read alike, the source gives them in different places.

`CC[C@H](C)C(=O)O[C@H]1C[C@@H](C)C=C2C=C[C@H](C)[C@H](CC[C@@H]3C[C@@H](O)CC(=O)O3)[C@H]21` [Lovastatin, reference compound]: the IC50 was 9.6 µM in assay [1], 29 µM in assay [2], 22700 nM in assay [3] (first ACAT 2 table) and 12500 nM in assay [3] (setting [4]).
In the case of `CC1C(c2ccccc2)C(C(=O)O)=NN1c1ccc(Cl)cc1Cl` (stereo not shown) [Example 3, 1-(2,4-Dichloro-phenyl)-5-methyl-4-phenyl-4,5-dihydro-1H-pyrazole-3-carboxylic acid], the inhibition at 30 µM in assay [1] is 74%; in assay [3] (3 × 10^−5 M, first ACAT 2 table, read-out: ACAT 2 Inhibition (%) at various concentration of example), 92%. Moreover, the inhibition at 3 µM in assay [1] was found to be 50%; in assay [3] (setting [5]), 75%; in assay [3] (setting [6]) it was 71%; in assay [3] (3 × 10^−6 M, second ACAT 2 table, repeated head, column 6, read-out: ACAT 2 Inhibition (%) at various concentration of example) it was 40%. For the same compound, the inhibition at 100 µM in assay [1] came out at 86%. The inhibition at 10 µM in assay [1] stood at 64%; in assay [3] (setting [8]) it was 88%; in assay [3] (setting [9]) it was 86%; in assay [3] (10^−5 M, second ACAT 2 table, repeated head, column 5, read-out: ACAT 2 Inhibition (%) at various concentration of example), 65%. Besides, the inhibition at 1 µM in assay [1] came out at 17%; in assay [3] (setting [10]) it was 56%. In addition, the IC50 in assay [1] was 4.84 µM; in assay [3] (first ACAT 2 table), 820 nM; in assay [3] (setting [4]), 2000 nM. The inhibition at 0.3 µM in assay [3] (setting [7]) was determined as 29%.
On to `C[C@@H]1[C@@H](c2ccccc2)C(C(=O)NN2CCCCC2)=NN1c1ccc(Cl)cc1Cl` (racemic) [Example 1, 1-(2,4-Dichlorophenyl)-5-methyl-4-phenyl-4,5-dihydro-1H-pyrazole-3-carboxylic acid piperidin-1-ylamide], for which the inhibition at 30 µM in assay [1] was determined as 72%; in assay [3] (3 × 10^−5 M, second ACAT 2 table, read-out: ACAT 2 Inhibition (%) at various concentration of example), 97%. The results for the inhibition at 3 µM in assay [1], in assay [3] (setting [5]) and in assay [3] (setting [6]) were 38%, 70% and 74%, respectively. Moreover, the inhibition at 100 µM in assay [1] turned out to be 55%; in assay [3] (10^−4 M, second ACAT 2 table, read-out: ACAT 2 Inhibition (%) at various concentration of example) it was 101%. Besides, the inhibition at 10 µM came to 65% in assay [1], 94% in assay [3] (setting [8]) and 93% in assay [3] (setting [9]). For the same compound, the inhibition at 1 µM in assay [1] was 14%; in assay [3] (setting [10]), 44%. In addition, the IC50 is 9.66 µM in assay [1], 1280 nM in assay [3] (first ACAT 2 table) and < 3000 nM in assay [3] (setting [4]). In addition, the inhibition at 0.3 µM in assay [3] (setting [7]) was 19%. For the same compound, the inhibition at 0.1 µM in assay [3] (10^−7 M, first ACAT 2 table, read-out: ACAT 2 Inhibition (%) at various concentration of example) was -3%.
Consider `C[C@@H]1[C@@H](c2ccccc2)C(C(=O)NN2CCCCC2)=NN1c1ccc(Cl)cc1Cl.Cl` (racemic) [Example 2, 1-(2,4-Dichloro-phenyl)-5-methyl-4-phenyl-4,5-dihydro-1H-pyrazole-3-carboxylic acid piperidin-1-ylamide; Hydrochloride], for which the “ACAT 2 Inhibition (%) at various concentration of example” value came out at 96% in assay [3] (3 × 10^−5 M, second ACAT 2 table); 70% in assay [3] (3 × 10^−6 M, first ACAT 2 table); 17% in assay [3] (3 × 10^−7 M, first ACAT 2 table); 100% in assay [3] (10^−4 M, second ACAT 2 table); 90% in assay [3] (10^−5 M, first ACAT 2 table); 39% in assay [3] (10^−6 M, first ACAT 2 table). The “ACAT 2 Inhibition (%) at various concentration of example” value in assay [3] (10^−7 M, first ACAT 2 table) stood at 4%. Besides, the IC50 in assay [3] (first ACAT 2 table) was found to be 1420 nM.
